Test results from a melting point compilation (Tetko et al.; mined from patent text by program, amines drawn as free bases though some values may be those of a salt).

SMILES | melting point
CCCCc1ncc(CC(Cc2ccccc2)C(=O)O)n1Cc1ccc(C(=O)O)cc1 (configuration not stated) | 120 to 124 °C
Cc1ccc(-c2[nH]c(-c3cccnc3)nc2C(=O)Nc2nccs2)cc1 | > 200 °C
CN(O)C(=O)C=Cc1cccc(Oc2ccccc2)c1 | 124 to 125 °C
Cc1c(Br)cc2c(c1C)OC(=O)C2(C)c1ccc(C(C)C)cc1 (configuration not stated) | 116 to 117 °C
CC(C(=O)Oc1ccc([N+](=O)[O-])cc1)c1ccccc1 (configuration not stated) | 55 to 56.5 °C
Cc1ccc(C(=O)/C=C/C(=O)O)o1 | 159 to 162 °C
O=C1C2C[C@H](O)CN2C(=O)N1c1ccc([N+](=O)[O-])c2ccccc12 (some centres not stated) | 246 to 248 °C
COC(=O)Nc1nc(C)c(-c2nc3ccccc3c(=O)n2-c2ccccc2)s1 | > 275 °C
CCCCCCCCCCCCCC(O)CNCCCCCCNCC(O)CCCCCCCCCCCCC (configuration not stated) | 117 to 124 °C
O=C(COc1ccc(Cl)cc1)N1Cc2cccn2Cc2ccccc21 | 120 to 122 °C
O=c1c(CO)cc(-c2ccc3c(c2)CCO3)nn1Cc1ccc(Cl)cc1 | 129 to 134 °C
CS(=O)c1nnc(-c2ccc3occ(-c4cc(F)ccc4F)c3c2)o1 (configuration not stated) | 151 to 152 °C
CC1(C)COS(=O)Oc2ccc(C#N)cc21 (configuration not stated) | 87 to 88 °C
O=C(O)c1cc(OCCCOc2ccc(O)cc2)cc(OCCCOc2ccc(O)cc2)c1 | 160 to 162 °C
Cc1[nH]c(=S)n(Nc2cccc(Br)c2)c1-c1ccccc1 | 190 °C
O=Cc1cccn1C(=O)c1ccccc1[N+](=O)[O-] | 95 to 99 °C
C#Cc1cccc(Nc2ncnc3[nH]cc(-c4cccs4)c23)c1 | 230 to 232 °C
CCc1cc(=O)cc(CC)[nH]1 | 103 to 110 °C
OCCCSc1nc2ccc(Cc3ccccc3)cc2[nH]1 | 103 to 105 °C
Nc1cc(C(c2cc(F)ccc2F)S(=O)(=O)c2ccc(Cl)cc2)c(Br)cn1 (configuration not stated) | 204 to 206 °C
NC(=O)c1cccc(-c2ccc(Oc3ccccc3)cc2)n1 | 178 to 180 °C
Nc1ccc([N+](=O)[O-])cc1OCCO | 140 to 142 °C
CNC(=O)COc1cc(C(F)(F)F)cc(C(F)(F)F)c1 | 98 to 99 °C
CC1(C)CCC(C)(C)c2cc(-c3c[nH]c(C=O)c3)ccc21 | 211 to 212 °C
CC(=O)c1ccc(OCCCCCCCCCCOc2ccccc2)o1 | 74 to 77 °C
CCc1sc2ncnc(N)c2c1-c1ccc(NC(=O)c2ccccc2)cc1 | 213 to 214 °C
O=C(O)c1sc(-c2ccc(C(F)(F)F)cc2)nc1CO | 250 to 252 °C

Results, then the compound that gave them:

melting point | SMILES
164 to 166 °C | CCOC(=O)C(=O)Nc1cc(Cl)cc(NC(=O)C(=O)OCC)n1
216 to 221 °C | COc1c(F)c(F)c([N+](=O)[O-])c2c(=O)c(C(=O)O)cn(C3CC3)c12
153 to 154 °C | N#Cc1ccc(ON=C2CCCC(C(=O)O)C2)cc1 (configuration not stated)
126 to 128 °C | Cc1cc2c(s1)N(C)c1ccccc1N=C2N1CCN(C)CC1
102 to 103 °C | CC(=O)Oc1c(C)c(C)c2c(c1C)CCC(C)(CCBr)O2 (configuration not stated)
261 to 263 °C | CCc1cc(-n2ccc(=O)cc2)c(S(C)(=O)=O)cc1C(=O)N=C(N)N
160 to 163 °C | CN(C)CC1CCc2cc(NC(=O)N3CCC(c4ccc(F)cc4)CC3)ccc2C1O (configuration not stated)
> 300 °C | O=C(O)c1ccc(N2CCN(c3ccncc3)CC2)cc1
190 to 191 °C | COc1cc2ncnc(N3CCc4cc(F)ccc43)c2cc1OC
70 °C | O=C(NCCc1ccccc1)[C@@H]1Cc2ccccc2N1S(=O)(=O)c1cccc(CNC(=O)C(F)(F)F)c1
136 to 137 °C | CC(C)(C)OC(=O)N1CCC(c2cn(S(C)(=O)=O)c3ccccc23)CC1
141 to 143 °C | CN(C)CC1CCc2cc(NC(=O)c3ccc(Br)cc3)ccc2C1 (configuration not stated)
151 to 152 °C | Cc1ccc(N2CCN(Cc3ccc4c(c3)NCCN4)CC2)cc1Cl
155 °C | CN1C(=O)CCC2(C)c3ccc(-c4ccccc4)cc3CCC12 (single isomer, unassigned; (+))
141 to 142 °C | OC(COc1cccc2[nH]ncc12)CN1CCC(COc2ccccc2)CC1 (configuration not stated)
96 °C | CCOC(=O)C1=CC(=O)C2(C(=O)c3ccc(OC)cc3)OC2O1 (configuration not stated)
200 to 202 °C | Cc1ccc(-c2ccc(S(C)(=O)=O)cc2)n1-c1ccc(Br)cc1
182 to 183 °C | CC(=O)NC[C@H]1CN(c2ccc(N3CCC(F)(COS(C)(=O)=O)CC3)c(F)c2)C(=O)O1
70 to 71 °C | CCOC(=O)C(c1ccc(N)cc1)N(C)C(C)C (configuration not stated)
48 to 50 °C | CCOC(=O)c1ncc(Cl)cc1F
225 to 226 °C | COC(=O)c1ccc(-c2cc(-c3ccc(Cl)cc3)no2)cc1
> 280 °C | Cc1c(F)c(F)c(O)c2c(=O)c(C(=O)O)cn(-c3cc(N)c(F)cc3F)c12
106 to 107 °C | CCOC(=O)CN(c1c([N+](=O)[O-])cc([N+](=O)[O-])c2ccccc12)S(=O)(=O)c1ccc(C)cc1
> 300 °C | O=C(Nc1cccc2c1C(=O)c1c-2n[nH]c1-c1ccc(C(=O)N2CCCC2)s1)NN1CCOCC1
142 to 144 °C | NC1CCN(C2c3ccccc3COc3ccc(Br)cc32)CC1 (configuration not stated)
